One block for each molecule: values may come before it.
Tests used:
[1] = target: T1, PGR-2 (Mus musculus, UniProt Q8VDQ1); test: PGR-2 enzymatic activity: substrate specificity and kinetics; type: biochemical; conditions: for specific activity with PGR-2 (substrate specificity): 15-keto PGE2 replaced with the substrate, 0.5 mM NADPH, 2 hours at 37° C.; for reduction catalyzed by PGR-2 (kinetics studies): recombinant PGR-2, NADPH cofactor
T1 construct: GST (N); made in house; host or cells: E. coli
T1 sequence (Q8VDQ1 whole entry): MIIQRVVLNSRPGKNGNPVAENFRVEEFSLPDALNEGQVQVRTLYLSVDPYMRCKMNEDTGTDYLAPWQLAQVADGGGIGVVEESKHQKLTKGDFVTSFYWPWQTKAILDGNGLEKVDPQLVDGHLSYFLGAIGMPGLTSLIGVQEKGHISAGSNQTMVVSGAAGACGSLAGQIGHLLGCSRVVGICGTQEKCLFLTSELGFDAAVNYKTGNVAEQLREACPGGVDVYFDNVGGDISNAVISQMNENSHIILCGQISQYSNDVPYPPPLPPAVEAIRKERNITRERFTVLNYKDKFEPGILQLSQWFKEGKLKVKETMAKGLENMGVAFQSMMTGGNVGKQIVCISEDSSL
Procedure: Mouse PGR-2 was recombinantly expressed in E. coli as a GST fusion protein following standard procedures. The recombinant PGR-2 protein thus obtained was used to determine substrate specificity and enzymatic kinetics.
Substrate specificity of PGR-2 was determined using the just-described procedure, except that 15-keto PGE2 was replaced with each of six prostaglandin substrates, each of three downstream metabolites, or leukotriene B4. The substrates were purchased from Cayman Chemical Company (Michigan, USA).
Unlike PGR/LTB4DH, PGR-2 used NADPH as a cofactor much more efficiently than NADH.
The substrate was 15-keto prostaglandin E1, 15-keto prostaglandin E2, 15-keto prostaglandin F1α, 15-keto prostaglandin F2α, 15-keto-fluprostenol isopropyl ester, or 15-keto-fluprostenol, which were purchased from Cayman Chemical Company (Michigan, USA). […] Absorbance at 490 nm was measured by an ELISA plate reader.

[2] = tested on: PPARs; test: Reporter gene assay of endogenous PPARs activity in 3T3-L1 cells; type: cell-based, mouse; conditions: 3T3-L1 cells induced to differentiate for two days, transfected with reporter gene
Procedure: (§1) The effect of prostaglandin on PPAR-γ activity in adipocytes was investigated. After treatment with a medium that induces cell differentiation, 3T3-L1 cells were treated from day 2 to 4 during adipogenesis with 14 μM 15-keto PGE2, 13,14-dihydro-15-keto PGE2, 15-keto PGF2α, 13,14-dihydro-15-keto PGF2α, or 4.5 μM of BRL49653 (a PPAR-γ agonist). See Forman et al., Cell (1995) 83:803-812. At day 6, aggregates of lipid droplets were stained with oil-red O for observation. […] After being induced to differentiate for two days, the 3T3-L1 cells were transfected with a reporter gene.

[3] = target: T2, PPAR-α (Homo sapiens, UniProt Q07869); test: Luciferase reporter with PPAR ligand-binding domain fused to GAL4 DNA-binding domain in 3T3-L1 cells; type: cell-based; conditions: relative to PPAR-γ activation
T2 construct: expressed in transfected cells; host or cells: 3T3-L1
T2 sequence (Q07869 239-466 limits assumed): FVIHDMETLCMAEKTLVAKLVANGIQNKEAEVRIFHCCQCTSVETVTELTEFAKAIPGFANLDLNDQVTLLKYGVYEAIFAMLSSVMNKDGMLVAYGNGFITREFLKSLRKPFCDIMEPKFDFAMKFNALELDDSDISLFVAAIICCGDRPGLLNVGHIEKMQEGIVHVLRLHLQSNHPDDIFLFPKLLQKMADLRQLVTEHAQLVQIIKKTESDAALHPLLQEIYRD
Excerpt: (§2) A luciferase reporter gene was transfected to 3T3-L1 cells together with the ligand-binding domain of […], PPAR-γ or […] fused to a yeast GAL4 DNA-binding domain.

[4] = target: T3, PPAR-γ (Homo sapiens, UniProt P37231); test: as above; type: cell-based
T3 construct: expressed in transfected cells; host or cells: 3T3-L1
T3 sequence (P37231 238-503 limits assumed): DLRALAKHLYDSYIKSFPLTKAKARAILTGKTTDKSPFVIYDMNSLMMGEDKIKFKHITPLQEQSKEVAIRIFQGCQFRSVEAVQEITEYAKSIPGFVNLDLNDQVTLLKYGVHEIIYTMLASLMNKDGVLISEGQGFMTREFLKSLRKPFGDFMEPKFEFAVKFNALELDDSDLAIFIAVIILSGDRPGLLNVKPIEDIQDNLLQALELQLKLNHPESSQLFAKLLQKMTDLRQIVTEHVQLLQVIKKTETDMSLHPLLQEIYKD
Excerpt: as §2

[5] = tested on: PPAR-γ target genes; test: Protein expression of adipogenesis-specific PPAR-γ target genes in 3T3-L1 cells; type: cell-based, mouse
Excerpt: Also examined was the ability of 15-keto PGE2 to induce protein expression of adipogenesis-specific, PPAR-γ target genes, i.e., IRS-1and -2.

[6] = tested on: 3T3-L1 cells; test: Adipogenesis in 3T3-L1 cells, oil-red O staining of lipid droplets; type: cell-based, mouse; conditions: 14 μM, day 2 to 4 during adipogenesis; stained at day 6
Procedure: as §1

[7] = tested on: 3T3-L1 cells; test: Glucose transport assay, uptake of 2-deoxy-D-[3H]glucose in differentiated 3T3-L1 cells; type: cell-based, mouse
Procedure: 3T3-L1cells were induced to differentiate in the same manner as described above. A glucose transport assay was performed by measuring uptake of 2-deoxy-D-[3H]glucose as described by Fingar et al. See Fingar et al., Endocrinology 134:728-735. 1.67 μM of the compound or 45 nM of a PPARs agonist, i.e., Avandia, was added to the cells. 10 μM cytochalasin-B was used to measure background glucose uptake levels.

[8] = tested on: Female diabetic mice (C57BLKS/J-m+/+Lep^db); test: Blood glucose levels in diabetic mice; type: in vivo, mouse; conditions: 25 mg/kg intraperitoneally twice a day for two days; fasted 48th through 52nd hour
Procedure: The in vivo effect compound 45 on glucose metabolism was also investigated. Female diabetic mice were obtained from the Jackson Laboratory (C57BLKS/J-m+/+Lep^db, 12 to 13 weeks old). These mice were characterized as insulin-resistant and hyperglycemic. 25 mg/kg of 2,2′-dihydroxychalcone (n=8) or placebo (n=4, final concentration against body fluid: 0.5% DMSO/1% ethanol) was injected intraperitoneally to the mice twice a day for two days. The mice were then fasted from the 48th hour through 52nd hour after the first injection. Blood samples were collected from the retro-orbital sinus before the first injection, and every two hours after two days of treatment. Blood glucose levels were measured by an electrode-type blood glucose meter (HORIBA, AntSense II, Japan).

[9] = tested on: PGR-2; test: RNA interference silencing of PGR-2 expression in 3T3-L1 cells; type: cell-based, mouse; conditions: transfection into 3T3-L1 fibroblasts or differentiating pre-adipocytes
Excerpt: (§3) An RNA interference (RNAi) approach was used to silence PGR-2 expression. Two small interfering RNA (siRNA) duplexes, i.e., […] (SEQ ID NO:7) and […] (SEQ ID NO:8), were annealed first and then introduced into 3T3-L1 fibroblasts or differentiating pre-adipocytes by transfection using oligofectamine (Invitrogen). Transfection of the siRNA duplexes reduced PGR-2 expression. In another experiment, transfection of the siRNA duplexes increased transcriptional activation of PPAR-γ. Thus, one can modulate PPAR-γ activity via silencing PGR-2 expression by RNA interference.

[10] = tested on: PPAR-γ; test: Transcriptional activation of PPAR-γ after siRNA transfection; type: cell-based; conditions: transfection of siRNA duplexes
Excerpt: as §3

specific activity with PGR-2 (substrate specificity) [1]: no specific activity was detected
Molecule: CCCCC[C@H](O)/C=C/[C@@H]1[C@@H](CC(=O)CCCCC(=O)O)[C@@H](O)C[C@H]1O [6-keto PGF1α]

specific activity with PGR-2 (substrate specificity) [1]: no specific activity was detected
Molecule: CCCCCC(=O)CC[C@H]1[C@H](O)CC(=O)[C@@H]1C/C=C\CCCC(=O)O [13,14-dihydro-15-keto PGE2]
endogenous PPARs activity (reporter gene) [2]: failed to increase PPARs activity

Molecule: CCCCCC(=O)CC[C@@H]1[C@@H](C/C=C\CCCC(=O)O)[C@@H](O)C[C@H]1O [13,14-dihydro-15-keto PGF2α]
endogenous PPARs activity (reporter gene) [2]: failed to increase PPARs activity

specific activity with PGR-2 (substrate specificity) [1]: reacted specifically
reduction catalyzed by PGR-2 (kinetics studies) [1]: catalyzed reduction
Molecule: CCCCCC(=O)/C=C/[C@H]1[C@H](O)CC(=O)[C@@H]1CCCCCCC(=O)O [15-keto PGE1, 15-keto prostaglandin E1]

activation of PPAR-α (GAL4 fusion, luciferase reporter) [3]: to a lesser degree
activation of PPAR-γ (GAL4 fusion, luciferase reporter) [4]: activated
reduction catalyzed by PGR-2 (kinetics studies) [1]: catalyzed reduction
Molecule: CCCCCC(=O)/C=C/[C@H]1[C@H](O)CC(=O)[C@@H]1C/C=C\CCCC(=O)O [15-keto PGE2, 15-keto prostaglandin E2]
endogenous PPARs activity (reporter gene) [2]: enhanced endogenous PPARs activity significantly
amount of IRS-1 protein [5]: did not increase
PPAR-γ1 and PPAR-γ2 expression ([5]; added with MIX, insulin and dexamethasone): significantly enhanced
expression of aP2, an adipocyte-specific marker ([5]; even in the absence of MIX): strongly induced
IRS-2 expression ([5]; in the presence of insulin and dexamethasone): enhanced the expression to a level similar to MIX
adipogenesis (lipid droplets stained with oil-red O) [6]: effectively enhanced adipogenesis at a level similar to BRL49653

specific activity with PGR-2 (substrate specificity) [1]: reacted specifically
reduction catalyzed by PGR-2 (kinetics studies) [1]: catalyzed reduction
Molecule: CCCCCC(=O)/C=C/[C@@H]1[C@@H](CCCCCCC(=O)O)[C@@H](O)C[C@H]1O [15-keto PGF1α, 15-keto prostaglandin F1α]

activation of PPAR-α (GAL4 fusion, luciferase reporter) [3]: to a lesser degree
activation of PPAR-γ (GAL4 fusion, luciferase reporter) [4]: activated
specific activity with PGR-2 (substrate specificity) [1]: reacted specifically
reduction catalyzed by PGR-2 (kinetics studies) [1]: catalyzed reduction
Molecule: CCCCCC(=O)/C=C/[C@@H]1[C@@H](C/C=C\CCCC(=O)O)[C@@H](O)C[C@H]1O [15-keto PGF2α, 15-keto prostaglandin F2α]
endogenous PPARs activity (reporter gene) [2]: enhanced endogenous PPARs activity significantly

reduction catalyzed by PGR-2 (kinetics studies) [1]: catalyzed reduction
Molecule: CC(C)OC(=O)CCC/C=C\C[C@@H]1[C@@H](/C=C/C(=O)COc2cccc(C(F)(F)F)c2)[C@H](O)C[C@@H]1O [15-keto fluprostenol isopropyl ester]

reduction catalyzed by PGR-2 (kinetics studies) [1]: catalyzed reduction
Molecule: O=C(O)CCC/C=C\C[C@@H]1[C@@H](/C=C/C(=O)COc2cccc(C(F)(F)F)c2)[C@H](O)C[C@@H]1O [15-keto fluprostenol]

Molecule: O=C(c1cc2cc(Cl)ccc2oc1=O)c1cc2cc(Cl)ccc2oc1=O [Compound 27]
ability to enhance glucose uptake compared with Avandia ([7]; 1.67 μM compound vs 45 nM Avandia): comparable to that of Avandia
increase of glucose uptake ([7]; differentiated 3T3-L1 cells, 1.67 μM compound, 100 nM insulin to stimulate uptake): 30 folds

Molecule: O=C(/C=C/c1ccccc1O)c1ccccc1O [Compound 45, 2,2′-dihydroxychalcone]
blood glucose levels compared to placebo controls [8]: significant reduction

specific activity with PGR-2 (substrate specificity) [1]: no specific activity was detected
Molecule: CCCCC/C=C\C[C@@H](O)/C=C/C=C/C=C\[C@@H](O)CCCC(=O)O [leukotriene B4]

Molecule: SEQ ID NO:7: small interfering RNA (siRNA) duplex gaguucaguuuaccggaug to silence PGR-2 expression (GAGUUCAGUUUACCGGAUG; chemistry not given here)
PGR-2 expression [9]: reduced
transcriptional activation of PPAR-γ [10]: increased

Molecule: SEQ ID NO:8: small interfering RNA (siRNA) duplex guucaagugaggacucuuu to silence PGR-2 expression (GUUCAAGUGAGGACUCUUU; chemistry not given here)
PGR-2 expression [9]: reduced
transcriptional activation of PPAR-γ [10]: increased

— patent US20090124688A1, “Prostaglandin reductase inhibitors” (priority 2006, published 2009)
